The results in this text go back to patent publication US20240383893A1, “Hydroxamic Acid Compound Having ENPP1 Inhibitory Activity and Use Thereof” (Haihe Biopharma Co., Ltd., priority 2021, published 2024).

Data set [1] is described as follows: Preliminary pharmacokinetic testing in ICR mice (gavage 5 mg/kg, intravenous 1 mg/kg). Type of data set: in vivo. As to conditions: male, mouse, plasma; for AUC(0-t) / half-life / Cmax: oral administration (5 mg/kg); for Cmax: read-out: Cmax. As to the method: 1. 6 healthy ICR mice, male, weighing 30-35 g, were randomly divided into 2 groups with 3 mice in each group. The tested compound was administered by gavage (5 mg/kg) and intravenous injection (1 mg/kg), respectively:
Feeding uniformly 4 hours after administration.

In data set [2] the target is T1, ENPP1 (hENPP1-ECD-His) (Homo sapiens (Human), UniProt P22413). As to the kind of experiment: biochemical.
Data set [3] deals with T1, ENPP1 (hENPP1-ECD-His).

Like-named read-outs stand apart in the source and are kept apart here.

T1 sequence (P22413 98-925): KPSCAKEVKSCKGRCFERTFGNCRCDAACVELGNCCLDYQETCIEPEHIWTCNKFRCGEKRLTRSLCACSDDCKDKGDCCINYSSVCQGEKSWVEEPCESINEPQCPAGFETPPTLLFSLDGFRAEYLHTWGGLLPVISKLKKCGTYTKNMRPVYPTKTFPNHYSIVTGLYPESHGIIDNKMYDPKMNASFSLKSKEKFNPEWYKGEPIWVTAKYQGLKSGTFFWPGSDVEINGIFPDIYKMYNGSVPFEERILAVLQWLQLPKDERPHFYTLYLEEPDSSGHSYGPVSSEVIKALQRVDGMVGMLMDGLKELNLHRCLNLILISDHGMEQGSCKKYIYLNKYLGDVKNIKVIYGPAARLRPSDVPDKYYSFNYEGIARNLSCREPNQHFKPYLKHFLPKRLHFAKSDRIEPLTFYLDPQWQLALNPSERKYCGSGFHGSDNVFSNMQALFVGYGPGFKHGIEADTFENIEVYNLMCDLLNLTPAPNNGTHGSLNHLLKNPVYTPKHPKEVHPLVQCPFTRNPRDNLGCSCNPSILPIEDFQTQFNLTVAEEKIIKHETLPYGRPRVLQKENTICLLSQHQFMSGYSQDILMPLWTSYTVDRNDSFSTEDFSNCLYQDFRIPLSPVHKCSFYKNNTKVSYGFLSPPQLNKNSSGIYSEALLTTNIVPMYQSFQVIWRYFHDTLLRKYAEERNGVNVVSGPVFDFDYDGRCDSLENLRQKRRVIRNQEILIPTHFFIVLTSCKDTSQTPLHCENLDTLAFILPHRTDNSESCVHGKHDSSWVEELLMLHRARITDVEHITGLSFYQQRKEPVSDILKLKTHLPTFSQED

What is called AUC(0-t) is exposure summed from dosing to a finite time, without extrapolation to infinity. In general, half-life refers to the time needed for the level to fall by half in the phase considered. As a reminder, the Cmax is the highest concentration seen after dosing. For `COc1ccc2c(Oc3ccc(C(C)(C)C(=O)NO)cc3)ccnc2n1` [Compound 42], in data set [1], the AUC(0-t) worked out at 887 ng·h/mL, the half-life is 1.3 h and the peak concentration (Cmax) worked out at 1490 ng/mL.
The term IC50 denotes the concentration that gives 50% inhibition. A low value points to higher potency. As to `COc1ccc2c(Oc3ccc(C(F)C(=O)NO)cc3)ccnc2n1` (stereo not drawn) [Compound 43], the 50% inhibitory concentration (IC50) against ENPP1 (hENPP1-ECD-His) [2] was found to be 5.3 nM.
For the compound `Cn1ncc2c(Nc3ccc(C(C)(C)C(=O)NO)cc3)ncnc21` [Compound 68], in data set [1], the area under the curve AUC(0-t) was 161 ng·h/mL, the half-life was 2.44 h and the Cmax was found to be 244 ng/mL. The bioavailability in data set [1] (oral administration (5 mg/kg) vs intravenous (1 mg/kg), read-out: F %) was 20.2%. The compound also displayed a 50% inhibitory concentration (IC50) against ENPP1 (hENPP1-ECD-His) [3] of 4.8 nM.
Regarding `CCOC(C(=O)NO)c1ccc(Oc2ccnc3nc(OC)ccc23)cc1` (stereo not drawn) [Compound 86], the midpoint of inhibition against ENPP1 (hENPP1-ECD-His) [2], the IC50, lay at 3.7 nM.
Still for that read-out and setting: to `CNc1ccc2c(Oc3ccc(C(C)(C)C(=O)NO)cc3)ccnc2c1` [Compound 102] belongs 389 nM.
For the compound `COc1ccc2c(Oc3ccc(C4(C(=O)NO)CCOCC4)cc3)ccnc2n1` [Compound 107], in data set [1], the area under the curve AUC(0-t) was 463 ng·h/mL, the half-life was 2 h and the Cmax was 640 ng/mL.
As to `COc1ccc2c(Oc3ccc(C(C)(C)C(=O)NO)c(F)c3)ccnc2n1` [Compound 110], in data set [1], the AUC(0-t) came out at 1590 ng·h/mL, the half-life is 3.9 h and the Cmax came out at 2370 ng/mL. Moreover, the bioavailability in data set [1] (po, 5 mg/kg, read-out: oral bioavailability) was over 20%.
At ENPP1 (hENPP1-ECD-His) [2], `COc1ccc2c(Oc3cnn(C(C)(C)C(=O)NO)c3)ccnc2n1` [Compound 155] registered an IC50 of 28 nM.
For `COc1cc2nccc(Nc3cnn(C4(C(=O)NO)CCOCC4)c3)c2cn1` [Compound 183], on ENPP1 (hENPP1-ECD-His) [2], half-maximal inhibition (IC50) was put at 6.8 nM.
The same measure, in the same setting: to `CC(C)C(C(=O)NO)c1ccc(Nc2ncnc3c2cnn3C)cc1` (stereo not drawn) [Compound 199] belongs 317 nM.
